# Assay results: patent US20250282771A1, “TETRAHYDROISOQUINOLINE HETEROBIFUNCTIONAL BCL-XL DEGRADERS” (Treeline Biosciences, Inc., priority 2022, published 2025)
# Biological target: T1, N-terminal HiBiT tagged BCL-XL (Homo sapiens, UniProt Q07817)
# T1 construct: expressed in transfected cells; host or cells: HT-1080 (ATCC CCL-121) cells stably transduced with lentivirus pLV-UBC-N-HiBiT-BCL-XL-PGK-puro
# Test: HiBiT based degradation assay
# Assay type: cell-based
# Settings: HT1080 cells expressing N-terminal HiBiT tagged BCL-XL, BCL-XL level normalized with DMSO control
# From the text: Human BCL-XL protein coding open reading frame fused with N-terminal HiBiT coding sequence was synthesized from Integrated DNA Technologies (IDT). Next, N-HiBiT-BCL-XL sequence was cloned into pLV-UBC-PGK-Puro, a lentivirus plasmid purchased from Vectorbuilder, to generate pLV-UBC-N-HiBiT-BCL-XL-PGK-puro. Lentiviral particles were generated from Lenti-X™ 293T cells (Clontech) by co-transfection of pLV-UBC-N-HiBiT-BCL-XL-PGK-puro plasmids and lentiviral packaging plasmid mix (Cellecta). HT-1080 [HT1080](ATCC CCL-121) cells were infected with the lentivirus, and HT1080 cells stably integrated with the lentiviral vectors were established by incubation with […] puromycin (Thermofisher).
# HT1080 cells expressing N-terminal HiBiT tagged BCL-XL were dispensed into a 384-well plate pre-spotted with compounds at varying concentrations. Three thousand cells were seeded into each well in 40 μL of RPMI 1640 media. […] After incubation, luminescence was read on a PHERAstar FSX Plate Reader (BMG). BCL-XL degradation at each indicated concentration was normalized with the DMSO control. The BCL-XL degradation curves were plotted using a four-parameter logistic model. For compounds displaying hook effects, the curve fitting was performed using the bottom point of the hook curves (i.e., the point of Ymin) as the bottom plateau to calculate EC50.
# T1 sequence (Q07817 whole entry): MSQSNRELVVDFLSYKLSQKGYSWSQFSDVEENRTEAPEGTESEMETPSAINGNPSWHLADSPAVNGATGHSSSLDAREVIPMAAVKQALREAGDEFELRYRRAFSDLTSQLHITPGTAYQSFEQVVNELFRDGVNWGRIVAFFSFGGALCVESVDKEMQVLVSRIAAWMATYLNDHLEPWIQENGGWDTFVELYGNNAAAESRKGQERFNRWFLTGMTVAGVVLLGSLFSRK
structure (smiles),measurement,value
Cc1c(OCCCN2CCN(c3cc4c(cc3F)C(=O)N(C3CCC(=O)NC3=O)C4=O)CC2)cccc1-c1ccc(N2CCc3cccc(C(=O)Nc4nc5ccccc5s4)c3C2)nc1C(=O)O (stereo not drawn) [Compound 101],Ymin (6 h),B (50% ≤ Ymin < 70%)
Cc1c(OCCCCCCCCCC(=O)N2CCN(c3cc4c(cc3F)C(=O)N(C3CCC(=O)NC3=O)C4=O)CC2)cccc1-c1ccc(N2CCc3cccc(C(=O)Nc4nc5ccccc5s4)c3C2)nc1C(=O)O (stereo not drawn) [Compound 102],Ymin (6 h),A (Ymin < 50%)
O=C1CCC(N2C(=O)c3cc(F)c(N4CCN(CCCCCCCOc5cccc(-c6ccc(N7CCc8cccc(C(=O)Nc9nc%10ccccc%10s9)c8C7)nc6C(=O)O)c5)CC4)cc3C2=O)C(=O)N1 (stereo not drawn) [Compound 103],Ymin (6 h),B (50% ≤ Ymin < 70%)
"Cc1c(OCCCCCCCN2CCN(c3cc4c(cc3F)C(=O)N(C3CCC(=O)NC3=O)C4=O)CC2)cccc1-c1ccc(N2CCc3cccc(C(=O)Nc4nc5ccccc5s4)c3C2)nc1C(=O)O (stereo not drawn) [Compound 104, 6-(8-(benzo[d]thiazol-2-ylcarbamoyl)-3,4-dihydroisoquinolin-2(1H)-yl)-3-(3-((7-(4-(2-(2,6-dioxopiperidin-3-yl)-6-fluoro-1,3-dioxoisoindolin-5-yl)piperazin-1-yl)heptyl)oxy)-2-methylphenyl)picolinic acid]",Ymin (6 h),B (50% ≤ Ymin < 70%)
same,Ymin (24 h),B (50% ≤ Ymin < 70%)
Cc1c(OCCCCCCCCCN2CCN(c3cc4c(cc3F)C(=O)N(C3CCC(=O)NC3=O)C4=O)CC2)cccc1-c1ccc(N2CCc3cccc(C(=O)Nc4nc5ccccc5s4)c3C2)nc1C(=O)O (stereo not drawn) [Compound 105],Ymin (6 h),A (Ymin < 50%)
"Cc1c(OCCC2CCN(CC(=O)N3CCN(c4cc5c(cc4F)C(=O)N(C4CCC(=O)NC4=O)C5=O)CC3)CC2)cccc1-c1ccc(N2CCc3cccc(C(=O)Nc4nc5ccccc5s4)c3C2)nc1C(=O)O (stereo not drawn) [Compound 106, 6-[8-(1,3-Benzothiazol-2-ylcarbamoyl)-3,4-dihydro-1H-isoquinolin-2-yl]-3-[3-[2-[1-[2-[4-[2-(2,6-dioxo-3-piperidyl)-6-fluoro-1,3-dioxo-isoindolin-5-yl]piperazin-1-yl]-2-oxo-ethyl]-4-piperidyl]ethoxy]-2-methyl-phenyl]pyridine-2-carboxylic acid]",Ymin (6 h),B (50% ≤ Ymin < 70%)
Cc1c(OCCCCCCCCCCCN2CCN(c3cc4c(cc3F)C(=O)N(C3CCC(=O)NC3=O)C4=O)CC2)cccc1-c1ccc(N2CCc3cccc(C(=O)Nc4nc5ccccc5s4)c3C2)nc1C(=O)O (stereo not drawn) [Compound 107],Ymin (6 h),B (50% ≤ Ymin < 70%)
Cc1c(OCCCCCCCCN2CCN(c3cc4c(cc3F)C(=O)N(C3CCC(=O)NC3=O)C4=O)CC2)cccc1-c1ccc(N2CCc3cccc(C(=O)Nc4nc5ccccc5s4)c3C2)nc1C(=O)O (stereo not drawn) [Compound 108],Ymin (6 h),B (50% ≤ Ymin < 70%)
Cc1c(OCCCCCCCCC(=O)N2CCN(c3cc4c(cc3F)C(=O)N(C3CCC(=O)NC3=O)C4=O)CC2)cccc1-c1ccc(N2CCc3cccc(C(=O)Nc4nc5ccccc5s4)c3C2)nc1C(=O)O (stereo not drawn) [Compound 109],Ymin (6 h),B (50% ≤ Ymin < 70%)
"Cc1c(Oc2ccc(CCCN3CCN(c4cc5c(cc4F)C(=O)N(C4CCC(=O)NC4=O)C5=O)CC3)cc2)cccc1-c1ccc(N2CCc3cccc(C(=O)Nc4nc5ccccc5s4)c3C2)nc1C(=O)O (stereo not drawn) [Compound 110, 6-[8-(1,3-Benzothiazol-2-ylcarbamoyl)-3,4-dihydro-1H-isoquinolin-2-yl]-3-[3-[4-[3-[4-[2-(2,6-dioxo-3-piperidyl)-6-fluoro-1,3-dioxo-isoindolin-5-yl]piperazin-1-yl]propyl]phenoxy]-2-methyl-phenyl]pyridine-2-carboxylic acid]",Ymin (6 h),B (50% ≤ Ymin < 70%)
same,Ymin (24 h),B (50% ≤ Ymin < 70%)
"Cc1c(O[C@H]2CC[C@H](CCC(=O)N3CCN(c4cc5c(cc4F)C(=O)N(C4CCC(=O)NC4=O)C5=O)CC3)CC2)cccc1-c1ccc(N2CCc3cccc(C(=O)Nc4nc5ccccc5s4)c3C2)nc1C(=O)O (stereo partly drawn) [Compound 111a, 6-(8-(benzo[d]thiazol-2-ylcarbamoyl)-3,4-dihydroisoquinolin-2(1H)-yl)-3-(3-(((1r,4r)-4-(3-(4-(2-(2,6-dioxopiperidin-3-yl)-6-fluoro-1,3-dioxoisoindolin-5-yl)piperazin-1-yl)-3-oxopropyl)cyclohexyl)oxy)-2-methylphenyl)picolinic acid]",Ymin (6 h),B (50% ≤ Ymin < 70%)
same,Ymin (24 h),B (50% ≤ Ymin < 70%)
"Cc1c(O[C@H]2CC[C@H](CCCN3CCN(c4cc5c(cc4F)C(=O)N(C4CCC(=O)NC4=O)C5=O)CC3)CC2)cccc1-c1ccc(N2CCc3cccc(C(=O)Nc4nc5ccccc5s4)c3C2)nc1C(=O)O (stereo partly drawn) [Compound 112a, 6-(8-(benzo[d]thiazol-2-ylcarbamoyl)-3,4-dihydroisoquinolin-2(1H)-yl)-3-(3-(((1s,4r)-4-(3-(4-(2-(2,6-dioxopiperidin-3-yl)-6-fluoro-1,3-dioxoisoindolin-5-yl)piperazin-1-yl)propyl)cyclohexyl)oxy)-2-methylphenyl)picolinic acid]",Ymin (6 h),B (50% ≤ Ymin < 70%)
same,Ymin (24 h),C (Ymin ≥ 70%)
"Cc1c(OCC2CC3(CCN(CC(=O)N4CCN(c5cc6c(cc5F)C(=O)N(C5CCC(=O)NC5=O)C6=O)CC4)CC3)C2)cccc1-c1ccc(N2CCc3cccc(C(=O)Nc4nc5ccccc5s4)c3C2)nc1C(=O)O (stereo not drawn) [Compound 113, 6-[8-(1,3-benzothiazol-2-ylcarbamoyl)-3,4-dihydro-1H-isoquinolin-2-yl]-3-[3-[[7-[2-[4-[2-(2,6-dioxo-3-piperidyl)-6-fluoro-1,3-dioxo-isoindolin-5-yl]piperazin-1-yl]-2-oxo-ethyl]-7-azaspiro[3.5]nonan-2-yl]methoxy]-2-methyl-phenyl]pyridine-2-carboxylic acid]",Ymin (6 h),B (50% ≤ Ymin < 70%)
same,Ymin (24 h),B (50% ≤ Ymin < 70%)
Cc1c(OCCCCCCCC(=O)N2CCN(c3cc4c(cc3F)C(=O)N(C3CCC(=O)NC3=O)C4=O)CC2)cccc1-c1ccc(N2CCc3cccc(C(=O)Nc4nc5ccccc5s4)c3C2)nc1C(=O)O (stereo not drawn) [Compound 114],Ymin (6 h),B (50% ≤ Ymin < 70%)
Cc1c(OCCCCCCN2CCN(c3cc4c(cc3F)C(=O)N(C3CCC(=O)NC3=O)C4=O)CC2)cccc1-c1ccc(N2CCc3cccc(C(=O)Nc4nc5ccccc5s4)c3C2)nc1C(=O)O (stereo not drawn) [Compound 115],Ymin (6 h),C (Ymin ≥ 70%)
same,Ymin (24 h),B (50% ≤ Ymin < 70%)
"Cc1c(OCCC2CCN(CCN3CCN(c4cc5c(cc4F)C(=O)N(C4CCC(=O)NC4=O)C5=O)CC3)CC2)cccc1-c1ccc(N2CCc3cccc(C(=O)Nc4nc5ccccc5s4)c3C2)nc1C(=O)O (stereo not drawn) [Compound 116, 6-[8-(1,3-benzothiazol-2-ylcarbamoyl)-3,4-dihydro-1H-isoquinolin-2-yl]-3-[3-[2-[1-[2-[4-[2-(2,6-dioxo-3-piperidyl)-6-fluoro-1,3-dioxo-isoindolin-5-yl]piperazin-1-yl]ethyl]-4-piperidyl]ethoxy]-2-methyl-phenyl]pyridine-2-carboxylic acid]",Ymin (24 h),A (Ymin < 50%)
"Cc1c(Oc2ccc(CCCCN3CCN(c4cc5c(cc4F)C(=O)N(C4CCC(=O)NC4=O)C5=O)CC3)cc2)cccc1-c1ccc(N2CCc3cccc(C(=O)Nc4nc5ccccc5s4)c3C2)nc1C(=O)O (stereo not drawn) [Compound 117, 6-(8-(benzo[d]thiazol-2-ylcarbamoyl)-3,4-dihydroisoquinolin-2(1H)-yl)-3-(3-(4-(4-(4-(2-(2,6-dioxopiperidin-3-yl)-6-fluoro-1,3-dioxoisoindolin-5-yl)piperazin-1-yl)butyl)phenoxy)-2-methylphenyl)picolinic acid]",Ymin (6 h),B (50% ≤ Ymin < 70%)
same,Ymin (24 h),B (50% ≤ Ymin < 70%)
"Cc1c(OCCCC2CCN(CCN3CCN(c4cc5c(cc4F)C(=O)N(C4CCC(=O)NC4=O)C5=O)CC3)CC2)cccc1-c1ccc(N2CCc3cccc(C(=O)Nc4nc5ccccc5s4)c3C2)nc1C(=O)O (stereo not drawn) [Compound 118, 6-(8-(benzo[d]thiazol-2-ylcarbamoyl)-3,4-dihydroisoquinolin-2(1H)-yl)-3-(3-(3-(1-(2-(4-(2-(2,6-dioxopiperidin-3-yl)-6-fluoro-1,3-dioxoisoindolin-5-yl)piperazin-1-yl)ethyl)piperidin-4-yl)propoxy)-2-methylphenyl)picolinic acid]",Ymin (24 h),A (Ymin < 50%)
"Cc1c(Oc2ccc(CCCC(=O)N3CCN(c4cc5c(cc4F)C(=O)N(C4CCC(=O)NC4=O)C5=O)CC3)cc2)cccc1-c1ccc(N2CCc3cccc(C(=O)Nc4nc5ccccc5s4)c3C2)nc1C(=O)O (stereo not drawn) [Compound 119, 6-(8-(benzo[d]thiazol-2-ylcarbamoyl)-3,4-dihydroisoquinolin-2(1H)-yl)-3-(3-(4-(4-(4-(2-(2,6-dioxopiperidin-3-yl)-6-fluoro-1,3-dioxoisoindolin-5-yl)piperazin-1-yl)-4-oxobutyl)phenoxy)-2-methylphenyl)picolinic acid]",Ymin (6 h),C (Ymin ≥ 70%)
same,Ymin (24 h),B (50% ≤ Ymin < 70%)
